Assay [1] addresses T1, HIV-1 RT Y181C mutant (Human immunodeficiency virus type 1 group M subtype B, UniProt P03367, Y780C).
T1 construct: The p66/p51 HIV-1 RT heterodimer engineered with a N-terminal histidine tag; His tag (histidine tag) (N); made in house; host or cells: Escherichia coli strain M15 (vector pRT6H-PR)
The experiment in a line: DDDP activity assay, Y181C RT mutant. As to conditions: PicoGreen or 33P radiolabeled assay, n ≥ 2, read-out: RT Inhibition—IC50 ± SEM, Y181C. The format is biochemical. The method, then:
(§1) The inhibitory activity of all compounds was evaluated in vitro in assays that measure the DNA-dependent DNA polymerase (DDDP) activity of HIV-1 RT. Compounds were tested against recombinant WT and drug-resistant HIV-1 RT mutants (K103N, Y181C or K103N/Y181C). […] The IC50 value of nevirapine was determined in parallel to control for the performance of the assay. […] These RT mutations either reduce the rate of entry of NNRTIs to the binding pocket (K103N) or remove aromatic interactions that favor binding (Y181C). Initially, compound IC50 values were determined in an assay that quantifies DDDP activity mediated by HIV-1 RT using a radiolabeled ^33PdTTP substrate and more recently using a nonradioactive PicoGreen-based spectrophotometric assay.
Recombinant HIV-1 RT: The p66/p51 HIV-1 RT heterodimer engineered with a N-terminal histidine tag was expressed from the pRT6H-PR vector (provided by Nicolas Sluis-Cremer) which is based on pRT6H-PROT [37], except that the RT coding region is derived from the infectious molecular clone xxLAI [38]. […] RT concentrations were determined spectrophotometrically at 280 nm using an extinction coefficient (e280) of 260, 450 M^−1 cm^−1.
Nevirapine was included in assays as a positive control for inhibiting RT polymerase activity. […] Following incubation at 37 °C for 10 min, samples from duplicate wells were applied to Whatman DE81 ion-exchange paper (GE Healthcare); dried membranes were washed in 2X saline-sodium citrate (SSC) buffer; and incorporated counts were quantified using an FLP-2000 phosphorimager (Fujifilm) or Typhoon Trio Phosphorimager (GE Healthcare) as published. […]

For assay [2], the target named is T2, His-tagged HIV-1 RT WT (Human immunodeficiency virus type 1 group M subtype B, UniProt P03367).
T2 construct: The p66/p51 HIV-1 RT heterodimer engineered with a N-terminal histidine tag; His tag (histidine tag) (N); made in house; host or cells: Escherichia coli strain M15 (vector pRT6H-PR)
The experiment in a line: Surface plasmon resonance, WT RT. Format: binding. The method, then:
(§2) Compound binding to recombinant HIV-1 RT was measured by surface plasmon resonance (SPR). SPR is an optical biosensor detection method that involves passing an analyte (often a fragment) in a buffer solution over a gold surface chip with an immobilized protein (RT enzyme) and detecting the change in plasmon resonance angle which is dependent on the refractive index of the medium near the surface. As compounds bind to the target protein, the refractive index changes proportionally to the extent of binding. This can then be used to measure the association and dissociation kinetics of binding as well as the compound’s affinity for binding.
(§3) SPR assays were performed on a Biacore S200 (GE Healthcare). His-tagged RT (WT, K103N, Y181C or K103N/Y181C) was immobilized on the surface of a Biacore compatible NIHC 1500M (Xantec) chip according to manufacturer’s instructions. Following 3 injections 300 s each of 0.5 M EDTA, the chip surface was activated with a 120 s injection of 5 mM NiCl2 followed by a 2100 s injection of 130 nM RT. The final immobilization level of RT was typically 14,000–27,000 RU. SPR experiments were carried out at 25 °C using a flow rate of 50 µL/min in running buffer. The running buffer was 1.053 × (HBS pH 7.4 + 50 µM EDTA + 0.005% Tween-20). Compounds were provided as 200 mM stocks and diluted in running buffer to obtain the concentrations required for dose-response studies (0, 6.25, 12.5, 25, 50, 100 and 200 µM). Raw sensorgram data were analyzed using Biacore S200 Evaluation Software. Dose-response determinations were evaluated using a 1:1 binding model. KD values were determined by Biacore S200 Evaluation Software Version 1.0. assuming 1:1 binding. For compounds approaching saturation, Rmax was floated. For compounds with insufficient curvature, Rmax was fixed based on a control. Errors were determined as the standard error in the dose-response fit, as calculated by Biacore S200 Evaluation Software.

Assay [3] concerns the target T3, recombinant WT HIV-1 RT (Human immunodeficiency virus type 1 group M subtype B, UniProt P03367).
T3 construct: The p66/p51 HIV-1 RT heterodimer engineered with a N-terminal histidine tag; His tag (histidine tag) (N); made in house; host or cells: Escherichia coli strain M15 (vector pRT6H-PR)
Kind of assay: biochemical. The method, then:
as §1
Recombinant HIV-1 RT: The p66/p51 HIV-1 RT heterodimer engineered with a N-terminal histidine tag was expressed from the pRT6H-PR vector (provided by Nicolas Sluis-Cremer) which is based on pRT6H-PROT [37], except that the RT coding region is derived from the infectious molecular clone xxLAI [38]. This xxLAI clone contains the HIV-1LAI backbone and is engineered with silent mutations introducing Xma I and Xba I sites in the RT coding region at nucleotide positions 40–45 and 1470 to 1475, respectively. pRT6H-PR expressing the NNRTI drug-resistant mutations K103N, Y181C and K103N/Y181C were generated by subcloning Xma I/Xba I fragments in xxLAI harboring the desired NNRTI mutations (Giacobbi NS and Sluis-Cremer 2017 AAC) into the corresponding restriction sites in the RT coding region of p6HRT-PR. RT was expressed in Escherichia coli strain M15 and purified using Ni-NTA chromatography as previously described. RT concentrations were determined spectrophotometrically at 280 nm using an extinction coefficient (e280) of 260, 450 M^−1 cm^−1.
Nevirapine was included in assays as a positive control for inhibiting RT polymerase activity. The DDDP assay was performed by first adding 25 ng of HIV-1 RT to test compound in 96-well plates followed by initiating RT polymerase activity by adding 200 ng of activated calf thymus (ACT) DNA (Sigma Aldrich), 0.2 µCi ^33P-α-dTTP (Perkin Elmer), 50 mM Tris-HCl pH 7.8 50 mM KCl, […], 50 µM dNTP mix (Bioline), 0.1 mg/mL bovine serum albumin (New England Biolabs), 0.01% IGEPAL (Sigma) and 1 mM dithiothreitol. Reactions contained 2.5% dimethyl sulfoxide (DMSO). Following incubation at 37 °C for 10 min, samples from duplicate wells were applied to Whatman DE81 ion-exchange paper (GE Healthcare); dried membranes were washed in 2X saline-sodium citrate (SSC) buffer; and incorporated counts were quantified using an FLP-2000 phosphorimager (Fujifilm) or Typhoon Trio Phosphorimager (GE Healthcare) as published. Dose–response curves were generated using PRISM GraphPad version 8 by plotting the log transformed drug concentrations against percentage inhibition of DDDP activity compared to the no drug control using non-linear regression analysis.
Non-radioactive DDDP Assay: DDDP assays were also performed using a PicoGreen based spectrophotometric assay to detect double-stranded DNA synthesized by recombinant HIV-1 RT [15]. Assays were performed as described for the […] DDDP assay except that instead of ACT, the reaction contained 40 nM of a template/primer comprising a 200 nt DNA template (5′-[…] […]-3′) annealed to a 18 nucleotide DNA primer (5′-[…]-3′), 50 mM Tris-HCl pH 7.8, 50 mM KCl, 10 mM MgCl2 and 50 µM dNTP mix.

Assay [4] addresses T4, His-tagged HIV-1 RT Y181C (Human immunodeficiency virus type 1 group M subtype B, UniProt P03367, Y780C).
T4 construct: The p66/p51 HIV-1 RT heterodimer engineered with a N-terminal histidine tag; His tag (histidine tag) (N); made in house; host or cells: Escherichia coli strain M15 (vector pRT6H-PR)
The experiment in a line: Surface plasmon resonance, Y181C RT. Particulars: ± standard error of dose–response fit, n = 1; NB = no binding observed; read-out: SPR—KD, Y181C. The method, then: as §2
SPR assays were performed on a Biacore S200 (GE Healthcare). His-tagged RT (WT, K103N, Y181C or K103N/Y181C) was immobilized on the surface of a Biacore compatible NIHC 1500M (Xantec) chip according to manufacturer’s instructions. Following 3 injections 300 s each of 0.5 M EDTA, the chip surface was activated with a 120 s injection of 5 mM NiCl2 followed by a 2100 s injection of 130 nM RT. […] Raw sensorgram data were analyzed using Biacore S200 Evaluation Software. Dose-response determinations were evaluated using a 1:1 binding model. KD values were determined by Biacore S200 Evaluation Software Version 1.0. assuming 1:1 binding. […] Errors were determined as the standard error in the dose-response fit, as calculated by Biacore S200 Evaluation Software.
A general note: SPR reads the build-up and loss of mass on a sensor chip optically.

In assay [5] the target is T5, HIV-1 RT K103N mutant (Human immunodeficiency virus type 1 group M subtype B, UniProt P03367, K702N).
T5 construct: The p66/p51 HIV-1 RT heterodimer engineered with a N-terminal histidine tag; His tag (histidine tag) (N); made in house; host or cells: Escherichia coli strain M15 (vector pRT6H-PR)
The experiment in a line: DDDP activity assay, K103N RT mutant. Format: biochemical. As to conditions: PicoGreen or 33P radiolabeled assay, n ≥ 2, read-out: RT Inhibition—IC50 ± SEM, K103N. The method, then:
as §1
Recombinant HIV-1 RT: The p66/p51 HIV-1 RT heterodimer engineered with a N-terminal histidine tag was expressed from the pRT6H-PR vector (provided by Nicolas Sluis-Cremer) which is based on pRT6H-PROT [37], except that the RT coding region is derived from the infectious molecular clone xxLAI [38]. […] RT concentrations were determined spectrophotometrically at 280 nm using an extinction coefficient (e280) of 260, 450 M^−1 cm^−1. […]

Assay [6] addresses T6, His-tagged HIV-1 RT K103N (Human immunodeficiency virus type 1 group M subtype B, UniProt P03367, K702N).
T6 construct: The p66/p51 HIV-1 RT heterodimer engineered with a N-terminal histidine tag; His tag (histidine tag) (N); made in house; host or cells: Escherichia coli strain M15 (vector pRT6H-PR)
Kind of assay: Surface plasmon resonance, K103N RT. As to conditions: ± standard error of dose–response fit, n = 1; NB = no binding observed; read-out: SPR—KD, K103N. The method, then: as §2, §3

The structures appear in SMILES notation.

The term IC50 denotes the concentration needed to halve the response being measured. In general, Kd refers to the constant that tells how readily two partners part at equilibrium.

Take `CCOC(=O)c1cnn2cccc(Br)c12` [compound 6, Ethyl 4-Bromopyrazolo[1,5-a]pyridine-3-carboxylate]: the IC50 in assay [1] is 850 ± 187 µM; in assay [3] (RT Inhibition—IC50 ± SEM, WT, WT RT DDDP activity, PicoGreen or 33P radiolabeled assay, value not marked as PicoGreen, n ≥ 2), 159 ± 29 µM; in assay [5], 846 ± 42 µM. Moreover, the Kd in assay [2] is 598 ± 15 µM; in assay [4], 1190 ± 47 µM; in assay [6], 1400 ± 45 µM. The “Ligand efficiency (LE)” value in assay [3] (binding to WT RT, LE = −1.4(logIC50)/N) was determined as 0.35 kcal/mol/HA.

Values taken from paper PMC10095864, “Targeting HIV-1 Reverse Transcriptase Using a Fragment-Based Approach” (Molecules, 2023).
